Literature values in patent US12059317B2, “Multi-phase oral care compositions” (The Procter & Gamble Company, priority 2019, dated 2024).
Where two headings read alike, the source gives them in different places.

Details: for Solubility in Water (number of parts by weight per 100 parts by weight of water): hydrophilic bleaching agent particle of the composition, PVP complex value estimated from supplier data sheet on PVP K-30

- Solubility in water (footnote values from supplier data sheets / Wikipedia): 80 parts per 100 parts of water
- Solubility in Water (number of parts by weight per 100 parts by weight of water) (listed as urea peroxide): 80 parts by weight per 100 parts
Compound: NC(N)=O.OO [Urea Peroxide, Urea Hydrogen Peroxide Adduct]
- Solubility in water (at 20 C, per Safety Data Sheet from supplier): 800 grams per liter
- Solubility in Water (number of parts by weight per 100 parts by weight of water): 80 parts by weight per 100 parts by weight of water
